Data from ChEMBL document CHEMBL3044672, “N9- and N7-(Chloromethyl Phenymethyl)Chloropurine Derivatives from , '-Dichloroxylenes: Synthesis and Anticancer Activity” (2005).

Tests used:
Format in all cases: functional
HCT-15 = experiment: Cytotoxicity against Homo sapiens (human) HCT15 cells after 48 hr by sulforhodamine B assay; details: HCT-15, 48 h
PC-3 = experiment: Cytotoxicity against Homo sapiens (human) PC3 cells after 48 hr by sulforhodamine B assay; details: PC-3, 48 h
A549 = experiment: Cytotoxicity against Homo sapiens (human) A549 cells after 48 hr by sulforhodamine B assay; details: A549, 48 h
RXF 393 = experiment: Cytotoxicity against Homo sapiens (human) RXF393 cells after 48 hr by sulforhodamine B assay; details: RXF 393, 48 h
EKVX = experiment: Cytotoxicity against Homo sapiens (human) EKVX cells after 48 hr by sulforhodamine B assay
HCT-116 = experiment: Cytotoxicity against Homo sapiens (human) HCT116 cells after 48 hr by sulforhodamine B assay; details: HCT-116, 48 h
ACHN = experiment: Cytotoxicity against Homo sapiens (human) ACHN cells after 48 hr by sulforhodamine B assay
UACC-62 = experiment: Cytotoxicity against Homo sapiens (human) UACC62 cells after 48 hr by sulforhodamine B assay; details: UACC-62, 48 h
NCI-H322M = experiment: Cytotoxicity against Homo sapiens (human) NCI-H322M cells after 48 hr by sulforhodamine B assay
KM12 = experiment: Cytotoxicity against Homo sapiens (human) KM12 cells after 48 hr by sulforhodamine B assay; details: KM12, 48 h
SK-MEL-5 = experiment: Cytotoxicity against Homo sapiens (human) SK-MEL-5 cells after 48 hr by sulforhodamine B assay; details: SK-MEL-5, 48 h
SK-MEL-2 = experiment: Cytotoxicity against Homo sapiens (human) SK-MEL-2 cells after 48 hr by sulforhodamine B assay; details: SK-MEL-2, 48 h
OVCAR-4 = experiment: Cytotoxicity against Homo sapiens (human) OVCAR4 cells after 48 hr by sulforhodamine B assay; details: OVCAR-4, 48 h
HOP-62 = experiment: Cytotoxicity against Homo sapiens (human) HOP62 cells after 48 hr by sulforhodamine B assay; details: HOP-62, 48 h
RPMI-8226 = experiment: Cytotoxicity against Homo sapiens (human) RPMI8226 cells after 48 hr by sulforhodamine B assay; details: RPMI-8226, 48 h
786-0 = experiment: Cytotoxicity against Homo sapiens (human) 786-0 cells after 48 hr by sulforhodamine B assay; details: 786-0, 48 h
OVCAR-3 = experiment: Cytotoxicity against Homo sapiens (human) OVCAR3 cells after 48 hr by sulforhodamine B assay; details: OVCAR-3, 48 h
SF-295 = experiment: Cytotoxicity against Homo sapiens (human) SF295 cells after 48 hr by sulforhodamine B assay; details: SF-295, 48 h
MDA-MB-231 = experiment: Cytotoxicity against Homo sapiens (human) MDA-MB-231 cells after 48 hr by sulforhodamine B assay; details: MDA-MB-231, 48 h
UO-31 = experiment: Cytotoxicity against Homo sapiens (human) UO31 cells after 48 hr by sulforhodamine B assay; details: UO-31, 48 h
LOX IMVI = experiment: Cytotoxicity against Homo sapiens (human) LOXIMVI cells after 48 hr by sulforhodamine B assay
T47D = experiment: Cytotoxicity against Homo sapiens (human) T47D cells after 48 hr by sulforhodamine B assay
A498 = experiment: Cytotoxicity against Homo sapiens (human) A498 cells after 48 hr by sulforhodamine B assay; details: A498, 48 h
CCRF-CEM = experiment: Cytotoxicity against Homo sapiens (human) CCRF-CEM cells after 48 hr by sulforhodamine B assay
SK-OV-3 = experiment: Cytotoxicity against Homo sapiens (human) SKOV3 cells after 48 hr by sulforhodamine B assay; details: SK-OV-3, 48 h
SW-620 = experiment: Cytotoxicity against Homo sapiens (human) SW620 cells after 48 hr by sulforhodamine B assay; details: SW-620, 48 h
SF-268 = experiment: Cytotoxicity against Homo sapiens (human) SF268 cells assessed as cell growth at 10^-4 M after 48 hr by […] assay; details: SF-268, 48 h, read-out: Activity
DU-145 = experiment: Cytotoxicity against Homo sapiens (human) DU145 cells after 48 hr by sulforhodamine B assay; details: DU-145, 48 h
SF-539 = experiment: Cytotoxicity against Homo sapiens (human) SF539 cells after 48 hr by sulforhodamine B assay; details: SF-539, 48 h
MOLT-4 = experiment: Cytotoxicity against Homo sapiens (human) MOLT4 cells after 48 hr by sulforhodamine B assay; details: MOLT-4, 48 h
IGROV-1 = experiment: Cytotoxicity against Homo sapiens (human) IGROV1 cells after 48 hr by sulforhodamine B assay; details: IGROV-1, 48 h
HCC 2998 = experiment: Cytotoxicity against Homo sapiens (human) HCC2998 cells after 48 hr by sulforhodamine B assay; details: HCC 2998, 48 h
[1] = read-out: LC50 (the source's name)

ClCc1ccccc1Cn1cnc2nc(Cl)nc(Cl)c21
GI50 (HCT-15): 0.19 µM | TGI (HCT-15): 0.43 µM | CC50 (HCT-15; [1]): 0.95 µM | GI50 (PC-3): 0.75 µM | TGI (PC-3): 2.57 µM | GI50 (A549): 2.81 µM | TGI (A549): 5.75 µM | CC50 (A549; [1]): > 100 µM | GI50 (RXF 393): 0.001 µM | TGI (RXF 393): 1.9 µM | CC50 (RXF 393; [1]): 6.45 µM | GI50 (EKVX): 1.73 µM | TGI (EKVX): 3.23 µM | CC50 (EKVX; [1]): 6.02 µM | GI50 (HCT-116): 1.86 µM | TGI (HCT-116): 4.07 µM | GI50 (ACHN): 0.35 µM | TGI (ACHN): 1.25 µM | CC50 (ACHN; [1]): 3.54 µM | GI50 (UACC-62): 1.2 µM | LC50 (concentration causing 50% net cell kill) (UACC-62): 6.76 µM | TGI (UACC-62): 2.81 µM | GI50 (NCI-H322M): 4.26 µM | TGI (NCI-H322M): 14.5 µM | CC50 (NCI-H322M; [1]): 39.8 µM | GI50 (KM12): 11.7 µM | TGI (KM12): 25.7 µM | CC50 (KM12; [1]): 56.2 µM | GI50 (SK-MEL-5): 0.74 µM | LC50 (SK-MEL-5): 5.49 µM | TGI (SK-MEL-5): 2.18 µM | GI50 (SK-MEL-2): 2.75 µM | LC50 (concentration killing 50% of cells) (SK-MEL-2): > 100 µM | TGI (SK-MEL-2): 5.75 µM | GI50 (OVCAR-4): 2.13 µM | LC50 (concentration killing 50% of cells) (OVCAR-4): > 100 µM | TGI (OVCAR-4): 5.12 µM | GI50 (HOP-62): 2.69 µM | TGI (HOP-62): 5.49 µM | CC50 (HOP-62; [1]): 16.6 µM | GI50 (RPMI-8226): 0.21 µM | TGI (RPMI-8226): 0.63 µM | GI50 (786-0): 2.63 µM | LC50 (786-0): 30.9 µM | TGI (786-0): 7.07 µM | GI50 (OVCAR-3): 14.1 µM | LC50 (OVCAR-3): 53.7 µM | TGI (OVCAR-3): 27.5 µM | GI50 (SF-295): 19.9 µM | TGI (SF-295): 35.5 µM | CC50 (SF-295; [1]): 61.6 µM | GI50 (MDA-MB-231): 0.3 µM | LC50 (MDA-MB-231): 3.23 µM | TGI (MDA-MB-231): 0.91 µM | GI50 (UO-31): 1.73 µM | GI50 (LOX IMVI): 0.16 µM | LC50 (LOX IMVI): 0.72 µM | TGI (LOX IMVI): 0.35 µM | GI50 (T47D): 0.58 µM | LC50 (T47D): > 100 µM | TGI (T47D): 5.24 µM | GI50 (A498): 2.51 µM | LC50 (lethal concentration, 50% cell kill) (A498): 19.5 µM | TGI (A498): 5.88 µM | GI50 (CCRF-CEM): 0.1 µM | TGI (CCRF-CEM): 0.3 µM | CC50 (CCRF-CEM; [1]): 0.93 µM | GI50 (SK-OV-3): 5.88 µM | LC50 (SK-OV-3): 56.2 µM | TGI (SK-OV-3): 20.9 µM | GI50 (SW-620): 0.26 µM | TGI (SW-620): 0.67 µM | CC50 (SW-620; [1]): 4.67 µM | growth at 100 µM (SF-268): 0% | LC50 (DU-145): 7.24 µM | GI50 (SF-539): 2.13 µM | LC50 (concentration killing 50% of cells) (SF-539): 8.31 µM | TGI (SF-539): 4.26 µM | GI50 (MOLT-4): 1.34 µM | TGI (MOLT-4): 3.23 µM | CC50 (MOLT-4; [1]): 7.94 µM | GI50 (IGROV-1): 2.88 µM | LC50 (IGROV-1): 9.54 µM | TGI (IGROV-1): 5.24 µM | GI50 (HCC 2998): 18.6 µM | TGI (HCC 2998): 35.5 µM | CC50 (HCC 2998; [1]): 66.1 µM
